Assays:
Assay in all cases: relative viability (nuclei count vs DMSO), 5 days (fraction); higher = more cells survive
4EGI-1 + Pictilisib = compound: O=C(O)C(Cc1ccccc1[N+](=O)[O-])=NNc1nc(-c2ccc(Cl)c(Cl)c2)cs1 (mixture of isomers) [4EGI-1] + CS(=O)(=O)N1CCN(Cc2cc3nc(-c4cccc5[nH]ncc45)nc(N4CCOCC4)c3s2)CC1 [Pictilisib] (partner 1 µM)
Method in brief: (§1)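 The day after seeding in 1536-well plates, lung cancer cell lines were treated by pin tool with a single drug, or with a fixed anchor-drug dose together with five library-drug doses (not always all listed) in √10 steps. After 5 days, a combined fix-and-stain solution (final 0.05% Triton X-100, 1% formaldehyde, 1 ug/ml Hoechst) was added. Nuclei counted on 4× images gave relative viability as treated counts over vehicle counts, reported as the median of duplicate plates.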

XMD8-85 + Crizotinib = compound: CN1CCN(CC1)C2=CC(=C(C=C2)NC3=NC=C4C(=N3)N(C5=CC=CC=C5C(=O)N4C)C)OC [XMD8-85] + C[C@@H](Oc1cc(-c2cnn(C3CCNCC3)c2)cnc1N)c1c(Cl)ccc(F)c1Cl [Crizotinib] (partner 1 µM)
Method in brief: as §1

XMD8-85 + Foretinib = compound: CN1CCN(CC1)C2=CC(=C(C=C2)NC3=NC=C4C(=N3)N(C5=CC=CC=C5C(=O)N4C)C)OC [XMD8-85] + COc1cc2c(Oc3ccc(NC(=O)C4(C(=O)Nc5ccc(F)cc5)CC4)cc3F)ccnc2cc1OCCCN1CCOCC1 [Foretinib] (partner 0.25 µM)
Method in brief: as §1

XMD8-85 + Linsitinib = compound: CN1CCN(CC1)C2=CC(=C(C=C2)NC3=NC=C4C(=N3)N(C5=CC=CC=C5C(=O)N4C)C)OC [XMD8-85] + C[C@]1(O)C[C@@H](c2nc(-c3ccc4ccc(-c5ccccc5)nc4c3)c3c(N)nccn32)C1 [Linsitinib] (partner 1 µM)
Method in brief: as §1

Cell Line | relative viability (4EGI-1 + Pictilisib; first compound 0.5 µM) | relative viability (4EGI-1 + Pictilisib; first compound 1.581 µM) | relative viability (4EGI-1 + Pictilisib; first compound 5 µM) | relative viability (4EGI-1 + Pictilisib; first compound 15.81 µM) | relative viability (4EGI-1 + Pictilisib; first compound 50 µM) | relative viability (XMD8-85 + Crizotinib; first compound 0.08 µM) | relative viability (XMD8-85 + Crizotinib; first compound 0.253 µM) | relative viability (XMD8-85 + Crizotinib; first compound 0.8 µM) | relative viability (XMD8-85 + Crizotinib; first compound 2.53 µM) | relative viability (XMD8-85 + Crizotinib; first compound 8 µM) | relative viability (XMD8-85 + Foretinib; first compound 0.08 µM) | relative viability (XMD8-85 + Foretinib; first compound 0.253 µM) | relative viability (XMD8-85 + Foretinib; first compound 0.8 µM) | relative viability (XMD8-85 + Foretinib; first compound 2.53 µM) | relative viability (XMD8-85 + Foretinib; first compound 8 µM) | relative viability (XMD8-85 + Linsitinib; first compound 0.08 µM) | relative viability (XMD8-85 + Linsitinib; first compound 0.253 µM) | relative viability (XMD8-85 + Linsitinib; first compound 0.8 µM) | relative viability (XMD8-85 + Linsitinib; first compound 2.53 µM) | relative viability (XMD8-85 + Linsitinib; first compound 8 µM)
LXF-289 | 0.846 | 0.731 | 0.793 | 0.745 | 0.516 | 0.787 | 0.798 | 0.809 | 0.804 | 0.658 | 0.887 | 0.997 | 0.993 | 0.977 | 0.812 | 0.916 | 0.927 | 0.964 | 1.01 | 0.883
NCI-H23 | 0.481 |  | 0.561 | 0.579 | 0.343 | 0.4 | 0.434 | 0.472 | 0.387 | 0.217 | 1.08 | 0.778 | 1.08 | 0.77 | 0.866 | 0.545 | 0.611 | 0.547 | 0.513 | 
NCI-H322M | 0.56 | 0.467 | 0.527 | 0.443 | 0.5 | 0.872 | 1.03 | 0.929 | 0.996 | 0.55 | 0.733 | 0.856 | 1.01 | 0.8 | 0.631 | 0.853 | 0.986 | 0.864 | 0.825 | 0.933
NCI-H358 | 0.333 | 0.368 | 0.346 | 0.259 | 0.223 | 0.674 | 0.465 | 0.816 | 0.506 | 0.248 | 0.656 | 0.774 | 0.84 | 0.673 | 0.422 | 0.756 | 0.832 |  | 0.643 | 0.442
NCI-H441 | 0.517 | 0.414 | 0.455 | 0.447 | 0.19 | 0.592 | 0.648 | 0.89 | 0.931 | 0.485 | 1.11 | 0.971 | 1.15 | 1.13 | 0.644 | 0.473 | 0.683 | 0.647 | 0.5 | 0.388
NCI-H460 | 0.381 |  | 0.366 | 0.331 | 0.261 | 0.996 | 0.83 | 1.19 | 0.619 | 0.0598 | 1.07 | 1.09 | 1.05 | 0.948 | 0.78 | 0.594 | 0.904 | 0.868 | 0.821 | 0.262
NCI-H520 | 0.332 | 0.315 | 0.378 | 0.367 | 0.162 | 0.796 | 0.572 | 0.914 | 0.673 | 0.324 | 0.798 | 0.729 | 0.895 | 0.741 | 0.484 | 0.86 | 0.914 | 1.16 | 0.849 | 0.67
NCI-H596 | 0.439 | 0.394 | 0.394 | 0.4 | 0.352 | 0.991 | 0.906 | 0.875 | 0.789 | 0.781 | 0.844 | 0.85 | 0.983 | 0.642 | 0.502 | 0.956 | 1.12 | 1.08 | 0.961 | 0.628
NCI-H647 | 0.437 |  | 0.432 | 0.401 | 0.27 | 1.12 | 1.1 | 1.05 | 1.14 | 0.213 | 1.37 | 1.3 | 1.34 | 1.04 | 0.865 | 1.29 | 1.35 | 1.55 | 0.862 | 0.634
NCI-H650 | 1.13 |  | 1.09 | 0.969 | 0.723 | 0.6 | 0.603 | 0.712 | 0.57 | 0.345 | 1.05 | 0.997 | 0.947 | 1.04 | 0.685 | 0.925 | 0.74 | 0.811 | 0.826 | 0.371
NCI-H661 | 0.368 | 0.344 | 0.391 | 0.336 | 0.231 | 1.03 | 1.16 | 0.905 | 1.1 | 0.854 | 1.16 | 1.09 | 0.989 | 1.07 | 0.91 | 0.523 | 0.518 | 0.523 | 0.579 | 0.448
NCI-H727 | 0.382 | 0.451 | 0.26 | 0.344 | 0.328 | 0.78 | 0.777 | 0.755 | 0.595 | 0.358 | 0.895 | 1.05 | 0.823 | 0.553 | 0.693 | 0.259 | 0.314 | 0.308 | 0.231 | 0.215
NCI-H838 | 0.527 |  | 0.435 | 0.362 | 0.173 | 0.774 | 0.808 | 1.07 | 0.815 | 0.292 | 0.941 | 1 | 1.08 | 0.91 | 0.569 | 0.979 | 0.958 | 1.2 | 1 | 0.507
NCI-H1299 | 0.863 | 0.824 | 1.03 | 0.732 | 0.163 | 0.983 | 0.962 | 1.03 | 0.928 | 0.601 | 1.13 | 1.1 | 1.1 | 1.11 | 0.86 | 0.881 | 1.06 | 0.973 | 0.981 | 0.654
